Laboratory results taken from patent publication EP0511152A2, “Quinoxaline compounds, their preparation and use” (NOVO NORDISK A/S, priority 1991, dated 1992).
≈ marks a conversion by molar mass, not a printed value.

Tests used:
AMPA type receptors = experiment: ³H-AMPA binding (Test 1); conditions: displacement of 50% of specific binding of ³H-AMPA (5 nM); rat cerebral cortical membrane homogenate, 0°C, 30 min
Protocol: (§1) The pharmacological properties of the compounds of the present invention can be illustrated by determining their capability for displacing radioactively labelled 2-amino3-hydroxy-5-methyl-4-isoxazolepropionic acid (AMPA) from the AMPA type receptors.
The displacement activity of the compounds may be shown by determining the IC₅₀ value which represents the concentration (µg/ml) which causes a displacement of 50% of the specific binding of ³H-AMPA.
500 µl of thawed rat cerebral cortical membrane homogenate in Tris-HCl (30 mM), CaCl₂ (2.5 mM) and KSCN (1OO mM) pH 7.1 were incubated at 0°C for 30 min. with 25 µl ³H-AMPA (5 nM final concentration) and the test compound and buffer. Nonspecific binding was determined by incubation with L-glutamic acid (600 µM final concentration). The binding reaction was terminated by adding 5 ml of ice-cold buffer followed by filtration through Whatman GF/C glass fibre filters and 2x5 ml wash with ice-cold buffer. Bound radioactivity was measured by scintillation counting. IC₅₀ was determined by Hill analysis of at least four concentrations of test compound.

[1] = tested on: quisqualic acid stimulated spreading depression in chicken retina; experiment: Spreading depression (Test 2); type: cell-based; conditions: Gallus gallus; concentration producing 50% maximal inhibition of quisqualic acid stimulated spreading depression; chick retina, quisqualate 1 µg/ml, 26°C
Protocol: as §1
The antagonism is measured by determining the IC₅₀ value which represents the concentration which produces a 50% maximal inhibition of quisqualic acid stimulated spreading depression in chicken retina.
Spreading depression (Test 2)
Chicks (3-10 days old) were decapitated, the eyes enucleated and sectioned along the equatorial plane. After removal of the anterior chamber and the vitreous body, the posterior chamber of each eye was placed in a small petri dish containing a physiological saline solution (P.S.S.) of the following composition (mM) NaCl (100), KCl (6.0), CaCl₂ (1.0), MgS0₄ (1.0), NaHCO₃ (30), NaH₂PO₄ (1.0), glucose (20).
The solution was saturated with 100% O₂ and maintained at 26°C.
The eyes are initially incubated in normal P.S.S. for 15-30 min. and then transferred to P.S.S. containing KCl (20 mM), NMDLA (30 µg/ml), quisqualate (1 µg/ml), kainate (1 µg/ml), or glycin (200 µg/ml). In these "stimulating solutions" S.D.s start spontaneously usually from the edge of the retina, and can be easily observed by eye. The time taken for an S.D. to start in each eye is measured.
After a further 15 minutes of incubation in normal P.S.S. the eyes are transferred to normal P.S.S. containing the test compound and incubated for 15 minutes. Thereafter the eyes are transferred to a "stimulating solution" containing the same concentration of the test compound. The time taken for an S.D. to start in each eye is again measured. The eyes are then placed back in normal P.S.S. and after 15 minutes the time taken for S.D. to start is again measured, in order to assess the degree of recovery from any drug effects.
An increase in the time taken for S.D. to start of 30 seconds more than the control time is considered 100% inhibition of S.D. The drug effects therefore are expressed as the percentage maximum response obtained for a given dose. The test value can be quoted therefore as the concentration (µg/ml) of test substance which produces a 50% maximal inhibition (IC₅₀).

Test 1 IC50 (AMPA type receptors) [µg/mL]	IC50 [1] [µg/mL]	SMILES
0.55	1.3 (≈ 4 µM)	O=c1[nH]c2cc([N+](=O)[O-])c3c(C(F)(F)F)cccc3c2[nH]c1=O [Example 8, 6-Nitro-7-trifluoromethylbenzo[f]quinoxaline-2,3-(1H,4H)-dione]
0.17	0.54 (≈ 1.71 µM)	N#Cc1cc2[nH]c(=O)c(=O)[nH]c2c2ccc(S(N)(=O)=O)cc12 [Example 11, 6-Cyano-8-sulfamoylbenzo[f]quinoxaline-2,3(1H,4H)-dione]
0.07	0.41 (≈ 1.37 µM)	NC(=O)c1ccc2c(c1)c([N+](=O)[O-])cc1[nH]c(=O)c(=O)[nH]c12 [Example 14, 8-Carbamoyl-6-nitrobenzo[f]quinoxaline-2,3(1H,4H)-dione]
0.16	1 (≈ 2.54 µM)	NC(=O)CNS(=O)(=O)c1ccc2c(c1)c([N+](=O)[O-])cc1[nH]c(=O)c(=O)[nH]c12 [Example 21, 8-Carbamoylmethylsulfamoyl-6-nitrobenzo[f]quinoxaline-2,3(1H,4H)-dione]
